Source: patent publication US9844550B2, “Phtalazinone derivatives and manufacturing process thereof” (ILDONG PHARM CO., LTD., priority 2013, dated 2017)

Test system: MDA-MB-436 breast cancer cell line
Assay: Cell viability assay (MDA-MB-436)
Assay type: cell-based
Conditions: Homo sapiens, 144 h; MDA-MB-436 cells, treated 6 days
Experimental: 2. Cell Viability Assay (MDA-MB-436)
Cell viability assay was performed by using MDA-MB-436 cell line to measure cytotoxicity of compounds in the present invention. MDA-MB-436 breast cancer cell line was seeded into 96-well plates at 37° C. under 5% CO2 atmosphere using DMEM/F12 (Gibco) containing 10% FBS (Hyclone). After 24 hr incubation, cells were treated with the invented compounds at various concentrations for 6 days. The medium was changed every 3 day. 6 days later, A fluorescence reagent was used to determine the IC50 values.

Structure (SMILES) | IC50
CC1(C)NC(=O)N(C2CN(C(=O)c3cc(Cc4n[nH]c(=O)c5ccccc45)ccc3F)C2)C1=O [Compound I-14, 3-(1-(2-fluoro-5-((4-oxo-3,4-dihydrophthalazin-1-yl)methyl)benzoyl)azetidin-3-yl)-5,5-dimethylimidazolidine-2,4-dione] | 50 to 300 nM
O=C(c1cc(Cc2n[nH]c(=O)c3ccccc23)ccc1F)N1CC(C(=O)N2CCC(F)(F)C2)C1 [Compound I-19, 4-(3-(3-(3,3-difluoropyrrolidine-1-carbonyl)azetidine-1-carbonyl)-4-fluorobenzyl)phthalazin-1(2H)-one] | 50 to 300 nM
O=C(c1cc(Cc2n[nH]c(=O)c3ccccc23)ccc1F)N1CC(C(=O)N2CCCC2)C1 [Compound I-22, 4-(4-fluoro-3-(3-(pyrrolidine-1-carbonyl)azetidine-1-carbonyl)benzyl)phthalazin-1(2H)-one] | 50 to 300 nM
CN(C)[C@H]1CCN(C(=O)C2CN(C(=O)c3cc(Cc4n[nH]c(=O)c5ccccc45)ccc3F)C2)C1 [Compound I-24, (S)-4-(3-(3-(3-(dimethylamino)pyrrolidine-1-carbonyl)azetidine-1-carbonyl)-4-fluorobenzyl)phthalazin-1(2H)-one] | 300 to 1000 nM
O=C(c1cc(Cc2n[nH]c(=O)c3ccccc23)ccc1F)N1CC[C@@H](NC2CC2)C1 [Compound I-29, (R)-4-(3-(3-(cyclopropylamino)pyrrolidine-1-carbonyl)-4-fluorobenzyl)phthalazin-1(2H)-one] | 300 to 1000 nM
O=C(c1cc(Cc2n[nH]c(=O)c3ccccc23)ccc1F)N1CC(N(CC2CC2)CC2CC2)C1 [Compound I-34, 4-(3-(3-(bis(cyclopropylmethyl)amino)azetidine-1-carbonyl)-4-fluorobenzyl)phthalazin-1(2H)-one] | 300 to 1000 nM
CC(C)(C)CNC1CN(C(=O)c2cc(Cc3n[nH]c(=O)c4ccccc34)ccc2F)C1 [Compound I-37, 4-(4-fluoro-3-(3-(neopentylamino)azetidine-1-carbonyl)benzyl)phthalazin-1(2H)-one] | 5 to 50 nM
CC1(C)CCCC1NC1CN(C(=O)c2cc(Cc3n[nH]c(=O)c4ccccc34)ccc2F)C1 (centres unmarked) [Compound I-38, 4-(3-(3-((2,2-dimethylcyclopentyl)amino)azetidine-1-carbonyl)-4-fluorobenzyl)phthalazin-1(2H)-one] | 5 to 50 nM
CCOC(=O)C1=C(NC2CN(C(=O)c3cc(Cc4n[nH]c(=O)c5ccccc45)ccc3F)C2)CCC1 [Compound I-39, ethyl 2-((1-(2-fluoro-5-((4-oxo-3,4-dihydrophthalazin-1-yl)methyl)benzoyl)azetidin-3-yl)amino)cyclopent-1-enecarboxylate] | 300 to 1000 nM
O=C(c1cc(Cc2n[nH]c(=O)c3ccccc23)ccc1F)N1CC(NC(C2CC2)C2CC2)C1 [Compound I-45, 4-(3-(3-((dicyclopropylmethyl)amino)azetidine-1-carbonyl)-4-fluorobenzyl)phthalazin-1(2H)-one] | 5 to 50 nM
CC(C)CC(C)NC1CN(C(=O)c2cc(Cc3n[nH]c(=O)c4ccccc34)ccc2F)C1 (centres unmarked) [Compound I-46, 4-(4-fluoro-3-(3-((4-methylpentan-2-yl)amino)azetidine-1-carbonyl)benzyl)phthalazin-1(2H)-one] | 5 to 50 nM
CCCC(C)NC1CN(C(=O)c2cc(Cc3n[nH]c(=O)c4ccccc34)ccc2F)C1 (centres unmarked) [Compound I-48, 4-(4-fluoro-3-(3-(pentan-2-ylamino)azetidine-1-carbonyl)benzyl)phthalazin-1(2H)-one] | ≤ 5 nM
CC(NC1CN(C(=O)c2cc(Cc3n[nH]c(=O)c4ccccc34)ccc2F)C1)C1(C)CC1 (centres unmarked) [Compound I-49, 4-(4-fluoro-3-(3-((1-(1-methylcyclopropyl)ethyl)amino)azetidine-1-carbonyl)benzyl)phthalazin-1(2H)-one] | 5 to 50 nM
CC(CNC1CN(C(=O)c2cc(Cc3n[nH]c(=O)c4ccccc34)ccc2F)C1)C(F)(F)F (centres unmarked) [Compound I-50, 4-(4-fluoro-3-(3-((3,3,3-trifluoro-2-methylpropyl)amino)azetidine-1-carbonyl)benzyl)phthalazin-1(2H)-one] | 50 to 300 nM
C=CCNC1CN(C(=O)c2cc(Cc3n[nH]c(=O)c4ccccc34)ccc2F)C1 [Compound I-51, 4-(3-(3-(allylamino)azetidine-1-carbonyl)-4-fluorobenzyl)phthalazin-1(2H)-one] | 5 to 50 nM
CC(C)CCNC1CN(C(=O)c2cc(Cc3n[nH]c(=O)c4ccccc34)ccc2F)C1 [Compound I-52, 4-(4-fluoro-3-(3-(isopentylamino)azetidine-1-carbonyl)benzyl)phthalazin-1(2H)-one] | ≤ 5 nM
CC(C)=CCNC1CN(C(=O)c2cc(Cc3n[nH]c(=O)c4ccccc34)ccc2F)C1 [Compound I-54, 4-(4-fluoro-3-(3-((3-methylbut-2-en-1-yl)amino)azetidine-1-carbonyl)benzyl)phthalazin-1(2H)-one] | 5 to 50 nM
O=C(c1cc(Cc2n[nH]c(=O)c3ccccc23)ccc1F)N1CC(NCC2CCCC2)C1 [Compound I-55, 4-(3-(3-((cyclopentylmethyl)amino)azetidine-1-carbonyl)-4-fluorobenzyl)phthalazin-1(2H)-one] | 5 to 50 nM
O=C(c1cc(Cc2n[nH]c(=O)c3ccccc23)ccc1F)N1CC(NCCCC(F)(F)F)C1 [Compound I-56, 4-(4-fluoro-3-(3-((4,4,4-trifluorobutyl)amino)azetidine-1-carbonyl)benzyl)phthalazin-1(2H)-one] | 300 to 1000 nM
CCCCCNC1CN(C(=O)c2cc(Cc3n[nH]c(=O)c4ccccc34)ccc2F)C1 [Compound I-57, 4-(4-fluoro-3-(3-(pentylamino)azetidine-1-carbonyl)benzyl)phthalazin-1(2H)-one] | 5 to 50 nM
O=C(c1cc(Cc2n[nH]c(=O)c3ccccc23)ccc1F)N1CC(NCCC2CC2)C1 [Compound I-58, 4-(3-(3-((2-cyclopropylethyl)amino)azetidine-1-carbonyl)-4-fluorobenzyl)phthalazin-1(2H)-one] | 5 to 50 nM
CCCNC1CN(C(=O)c2cc(Cc3n[nH]c(=O)c4ccccc34)ccc2F)C1 [Compound I-59, 4-(4-fluoro-3-(3-(propylamino)azetidine-1-carbonyl)benzyl)phthalazin-1(2H)-one] | 5 to 50 nM
CN(Cc1ccncc1)[C@@H]1CCN(C(=O)c2cc(Cc3n[nH]c(=O)c4ccccc34)ccc2F)C1 [Compound I-61, (R)-4-(4-fluoro-3-(3-(methyl(pyridin-4-ylmethyl)amino)pyrrolidine-1-carbonyl)benzyl)phthalazin-1(2H)-one] | 50 to 300 nM
CN(Cc1cccnc1)C1CN(C(=O)c2cc(Cc3n[nH]c(=O)c4ccccc34)ccc2F)C1 [Compound I-66, 4-(4-fluoro-3-(3-(methyl(pyridin-3-ylmethyl)amino)azetidine-1-carbonyl)benzyl)phthalazin-1(2H)-one] | 50 to 300 nM
CN(C1CC1)C1CN(C(=O)c2cc(Cc3n[nH]c(=O)c4ccccc34)ccc2F)C1 [Compound I-69, 4-(3-(3-(cyclopropyl(methyl)amino)azetidine-1-carbonyl)-4-fluorobenzyl)phthalazin-1(2H)-one] | 50 to 300 nM
CCN(C1CC1)C1CN(C(=O)c2cc(Cc3n[nH]c(=O)c4ccccc34)ccc2F)C1 [Compound I-70, 4-(3-(3-(cyclopropyl(ethyl)amino)azetidine-1-carbonyl)-4-fluorobenzyl)phthalazin-1(2H)-one] | 50 to 300 nM
